Source: US12152264B2, “Phosphinothricin dehydrogenase mutant, genetically engineered bacterium and one-pot multi-enzyme synchronous directed evolution method” (ZHEJIANG UNIVERSITY OF TECHNOLOGY, priority 2020, dated 2024)

Columns and labels:
[1] = molecular target: Pseudomonas fluorescens phosphinothricin dehydrogenase (PPTDH, PfGluDH; WP_150701510.1) mutant A164G_R205K_T332A, SEQ ID No.1 (Pseudomonas azerbaijanoccidentalis, UniProt A0ABS6QXK2, A164G/R205K/T332A); type: biochemical; settings: A164G_R205K_T332A; pH 7.0, 40° C.
[2] = molecular target: Pseudomonas fluorescens phosphinothricin dehydrogenase (PPTDH, PfGluDH; NCBI accession number WP_150701510.1), wild type (Pseudomonas azerbaijanoccidentalis, UniProt A0ABS6QXK2); experiment: Determination of kinetic parameters of wild-type phosphinothricin dehydrogenase (PPO reductive amination with NADPH); settings: pH 7.0, 40° C.

## NC(=O)C1=CN([C@@H]2O[C@H](COP(=O)(O)OP(=O)(O)OC[C@H]3O[C@@H](n4cnc5c(N)ncnc54)[C@H](OP(=O)(O)O)[C@@H]3O)[C@@H](O)[C@H]2O)C=CC1 [NADPH]
[1]
  kcat/Km^A (NADPH): 1.05761e+07 M⁻¹ s⁻¹
[2]
  kcat/Km^A (NADPH): 53360 M⁻¹ s⁻¹
